{"source": "ChEMBL document CHEMBL3588744", "about": "“Structure-Based Optimization of Naphthyridones into Potent ATAD2 Bromodomain Inhibitors” (J Med Chem, 2015)", "key": {"[1]": {"target": "T1, Bromodomain-containing protein 4 (Homo sapiens, UniProt O60885)", "assay": "Binding affinity to BRD4 containing BD1 bromodomains (unknown origin) by TR-FRET assay"}, "[2]": {"target": "Bromodomain-containing protein 7 (Homo sapiens, UniProt Q9NPI1)", "assay": "Binding affinity to BRD7 in human HUT78 cells incubated for 45 mins by mass spectrometry based bromosphere chemoproteomic assay", "assay_type": "cell-based"}, "physchem": {"assay": "physchem", "conditions": "phosphate buffered saline, pH 7.4, solubility", "description": "Solubility of the compound in phosphate buffered saline at pH 7.4 after 1 hr by CLND method"}, "Protein polybromo-1": {"target": "Protein polybromo-1 (Homo sapiens, UniProt Q86U86)", "assay": "Binding affinity to PBRM1 in human HUT78 cells incubated for 45 mins by mass spectrometry based bromosphere chemoproteomic assay", "assay_type": "cell-based"}, "[3]": {"target": "Bromodomain adjacent to zinc finger domain protein 2A (Homo sapiens, UniProt Q9UIF9)", "assay": "Binding affinity to BAZ2A in human HUT78 cells incubated for 45 mins by mass spectrometry based bromosphere chemoproteomic assay", "assay_type": "cell-based"}, "[4]": {"target": "Bromodomain-containing protein 1 (Homo sapiens, UniProt O95696)", "assay": "Binding affinity to BRPF2 (unknown origin) by BROMOscan panel based assay"}, "[5]": {"assay": "Permeability across phosphatidyl choline membrane at pH 7.4 after 3 hrs by HPLC with UV detection method", "assay_type": "ADME", "conditions": "not told, read-out: permeability"}, "[6]": {"target": "T2, Bromodomain-containing protein 3 (Homo sapiens, UniProt Q15059)", "T2 sequence (Q15059 whole entry)": "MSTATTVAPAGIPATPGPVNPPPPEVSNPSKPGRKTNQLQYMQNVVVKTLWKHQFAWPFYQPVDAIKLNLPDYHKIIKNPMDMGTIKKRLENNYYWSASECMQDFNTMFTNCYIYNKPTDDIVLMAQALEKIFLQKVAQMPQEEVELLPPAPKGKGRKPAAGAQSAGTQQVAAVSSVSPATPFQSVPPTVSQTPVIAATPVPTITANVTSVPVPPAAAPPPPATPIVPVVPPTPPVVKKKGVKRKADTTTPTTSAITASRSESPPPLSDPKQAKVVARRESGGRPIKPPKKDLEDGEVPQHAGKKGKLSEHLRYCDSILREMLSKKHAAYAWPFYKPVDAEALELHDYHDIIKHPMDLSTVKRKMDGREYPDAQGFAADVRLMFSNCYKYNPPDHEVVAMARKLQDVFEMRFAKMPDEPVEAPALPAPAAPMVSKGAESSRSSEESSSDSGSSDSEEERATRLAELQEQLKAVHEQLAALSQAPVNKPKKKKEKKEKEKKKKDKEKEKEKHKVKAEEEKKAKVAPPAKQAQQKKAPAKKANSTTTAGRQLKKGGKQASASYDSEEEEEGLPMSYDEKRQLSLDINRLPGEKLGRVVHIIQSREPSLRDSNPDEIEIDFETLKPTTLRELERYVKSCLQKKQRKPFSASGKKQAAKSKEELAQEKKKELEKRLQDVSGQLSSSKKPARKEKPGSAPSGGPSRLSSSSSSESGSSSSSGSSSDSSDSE", "assay": "Binding affinity to BRD3 containing BD2 bromodomains (unknown origin) by TR-FRET assay"}, "[7]": {"target": "Transcription initiation factor TFIID subunit 1 (Homo sapiens, UniProt P21675)", "assay": "Binding affinity to TAF1 (unknown origin) by BROMOscan panel based assay"}, "[8]": {"target": "T3, Bromodomain-containing protein 2 (Homo sapiens, UniProt P25440)", "T3 sequence (P25440 whole entry)": "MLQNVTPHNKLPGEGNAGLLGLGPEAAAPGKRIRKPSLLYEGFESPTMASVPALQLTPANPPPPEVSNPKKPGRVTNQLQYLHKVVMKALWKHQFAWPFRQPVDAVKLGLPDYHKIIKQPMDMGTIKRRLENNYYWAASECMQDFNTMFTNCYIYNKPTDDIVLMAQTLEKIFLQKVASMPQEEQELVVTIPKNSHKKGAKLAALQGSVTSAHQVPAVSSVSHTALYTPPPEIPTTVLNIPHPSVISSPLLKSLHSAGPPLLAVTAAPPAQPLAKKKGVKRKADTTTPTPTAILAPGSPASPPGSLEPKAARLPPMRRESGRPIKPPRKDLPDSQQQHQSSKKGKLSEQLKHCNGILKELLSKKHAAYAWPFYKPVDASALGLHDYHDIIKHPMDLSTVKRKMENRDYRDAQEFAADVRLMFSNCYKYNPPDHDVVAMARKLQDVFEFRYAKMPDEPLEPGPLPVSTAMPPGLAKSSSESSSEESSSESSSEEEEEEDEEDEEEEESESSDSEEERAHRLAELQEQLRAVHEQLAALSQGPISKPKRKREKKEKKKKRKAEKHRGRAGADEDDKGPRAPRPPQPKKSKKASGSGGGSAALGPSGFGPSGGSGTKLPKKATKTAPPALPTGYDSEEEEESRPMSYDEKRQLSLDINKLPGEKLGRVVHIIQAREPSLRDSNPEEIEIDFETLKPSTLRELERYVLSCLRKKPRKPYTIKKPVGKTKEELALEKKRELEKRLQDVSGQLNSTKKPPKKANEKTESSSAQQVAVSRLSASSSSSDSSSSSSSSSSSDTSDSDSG", "assay": "Binding affinity to BRD2 containing BD2 bromodomains (unknown origin) by TR-FRET assay"}, "[9]": {"target": "T4, ATPase family AAA domain-containing protein 2B (Homo sapiens, UniProt Q9ULI0)", "T4 sequence (Q9ULI0 whole entry, the tested form may be a part)": "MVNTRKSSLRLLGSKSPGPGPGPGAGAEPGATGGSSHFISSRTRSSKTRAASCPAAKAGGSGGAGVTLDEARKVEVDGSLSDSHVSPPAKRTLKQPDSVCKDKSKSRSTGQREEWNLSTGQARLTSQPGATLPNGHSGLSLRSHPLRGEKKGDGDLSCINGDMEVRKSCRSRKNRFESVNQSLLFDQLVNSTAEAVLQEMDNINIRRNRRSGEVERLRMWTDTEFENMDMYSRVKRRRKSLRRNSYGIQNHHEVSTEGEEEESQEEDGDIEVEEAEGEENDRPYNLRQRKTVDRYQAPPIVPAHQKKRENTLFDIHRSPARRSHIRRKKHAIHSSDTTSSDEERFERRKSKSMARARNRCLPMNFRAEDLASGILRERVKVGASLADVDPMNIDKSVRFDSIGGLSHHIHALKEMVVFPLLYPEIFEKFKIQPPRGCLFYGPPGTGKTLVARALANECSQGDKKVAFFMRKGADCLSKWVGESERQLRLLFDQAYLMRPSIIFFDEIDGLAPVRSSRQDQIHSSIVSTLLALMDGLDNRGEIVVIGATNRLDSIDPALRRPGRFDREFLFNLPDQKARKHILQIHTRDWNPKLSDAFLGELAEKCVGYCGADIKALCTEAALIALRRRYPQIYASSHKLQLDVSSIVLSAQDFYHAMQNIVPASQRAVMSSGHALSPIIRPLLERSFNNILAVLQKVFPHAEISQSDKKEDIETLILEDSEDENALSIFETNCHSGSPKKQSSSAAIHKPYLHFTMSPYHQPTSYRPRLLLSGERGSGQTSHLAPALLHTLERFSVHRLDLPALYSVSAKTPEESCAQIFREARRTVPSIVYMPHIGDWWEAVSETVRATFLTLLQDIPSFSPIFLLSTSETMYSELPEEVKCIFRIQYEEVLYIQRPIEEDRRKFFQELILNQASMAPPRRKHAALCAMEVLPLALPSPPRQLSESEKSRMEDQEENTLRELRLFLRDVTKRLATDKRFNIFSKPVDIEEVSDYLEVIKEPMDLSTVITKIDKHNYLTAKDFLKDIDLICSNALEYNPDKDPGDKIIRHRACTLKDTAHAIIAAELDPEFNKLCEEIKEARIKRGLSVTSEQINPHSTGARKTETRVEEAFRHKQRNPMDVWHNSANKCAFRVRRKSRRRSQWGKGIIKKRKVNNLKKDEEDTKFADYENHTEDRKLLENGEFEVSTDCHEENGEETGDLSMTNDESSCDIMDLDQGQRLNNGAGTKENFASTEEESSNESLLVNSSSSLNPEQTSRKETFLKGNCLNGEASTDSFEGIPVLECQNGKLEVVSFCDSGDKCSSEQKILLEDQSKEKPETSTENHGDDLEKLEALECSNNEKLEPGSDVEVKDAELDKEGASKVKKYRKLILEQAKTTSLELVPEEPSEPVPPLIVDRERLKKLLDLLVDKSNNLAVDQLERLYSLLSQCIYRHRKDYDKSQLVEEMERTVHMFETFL", "assay": "Binding affinity to ATAD2B in human HUT78 cells incubated for 45 mins by mass spectrometry based bromosphere chemoproteomic assay", "assay_type": "cell-based"}, "[10]": {"target": "T1, Bromodomain-containing protein 4", "assay": "Binding affinity to BRD4 BD1 (unknown origin) by BROMOscan panel based assay"}, "[11]": {"target": "Bromodomain testis-specific protein (Homo sapiens, UniProt Q58F21)", "assay": "Binding affinity to BRDt containing BD1 bromodomains (unknown origin) by TR-FRET assay"}, "[12]": {"target": "T1, Bromodomain-containing protein 4", "assay": "Binding affinity to BRD4 in human HUT78 cells incubated for 45 mins by mass spectrometry based bromosphere chemoproteomic assay", "assay_type": "cell-based"}, "[13]": {"target": "T3, Bromodomain-containing protein 2", "assay": "Binding affinity to BRD2 in human HUT78 cells incubated for 45 mins by mass spectrometry based bromosphere chemoproteomic assay", "assay_type": "cell-based"}, "Peregrin": {"target": "T5, Peregrin (Homo sapiens, UniProt P55201)", "T5 sequence (P55201 whole entry)": "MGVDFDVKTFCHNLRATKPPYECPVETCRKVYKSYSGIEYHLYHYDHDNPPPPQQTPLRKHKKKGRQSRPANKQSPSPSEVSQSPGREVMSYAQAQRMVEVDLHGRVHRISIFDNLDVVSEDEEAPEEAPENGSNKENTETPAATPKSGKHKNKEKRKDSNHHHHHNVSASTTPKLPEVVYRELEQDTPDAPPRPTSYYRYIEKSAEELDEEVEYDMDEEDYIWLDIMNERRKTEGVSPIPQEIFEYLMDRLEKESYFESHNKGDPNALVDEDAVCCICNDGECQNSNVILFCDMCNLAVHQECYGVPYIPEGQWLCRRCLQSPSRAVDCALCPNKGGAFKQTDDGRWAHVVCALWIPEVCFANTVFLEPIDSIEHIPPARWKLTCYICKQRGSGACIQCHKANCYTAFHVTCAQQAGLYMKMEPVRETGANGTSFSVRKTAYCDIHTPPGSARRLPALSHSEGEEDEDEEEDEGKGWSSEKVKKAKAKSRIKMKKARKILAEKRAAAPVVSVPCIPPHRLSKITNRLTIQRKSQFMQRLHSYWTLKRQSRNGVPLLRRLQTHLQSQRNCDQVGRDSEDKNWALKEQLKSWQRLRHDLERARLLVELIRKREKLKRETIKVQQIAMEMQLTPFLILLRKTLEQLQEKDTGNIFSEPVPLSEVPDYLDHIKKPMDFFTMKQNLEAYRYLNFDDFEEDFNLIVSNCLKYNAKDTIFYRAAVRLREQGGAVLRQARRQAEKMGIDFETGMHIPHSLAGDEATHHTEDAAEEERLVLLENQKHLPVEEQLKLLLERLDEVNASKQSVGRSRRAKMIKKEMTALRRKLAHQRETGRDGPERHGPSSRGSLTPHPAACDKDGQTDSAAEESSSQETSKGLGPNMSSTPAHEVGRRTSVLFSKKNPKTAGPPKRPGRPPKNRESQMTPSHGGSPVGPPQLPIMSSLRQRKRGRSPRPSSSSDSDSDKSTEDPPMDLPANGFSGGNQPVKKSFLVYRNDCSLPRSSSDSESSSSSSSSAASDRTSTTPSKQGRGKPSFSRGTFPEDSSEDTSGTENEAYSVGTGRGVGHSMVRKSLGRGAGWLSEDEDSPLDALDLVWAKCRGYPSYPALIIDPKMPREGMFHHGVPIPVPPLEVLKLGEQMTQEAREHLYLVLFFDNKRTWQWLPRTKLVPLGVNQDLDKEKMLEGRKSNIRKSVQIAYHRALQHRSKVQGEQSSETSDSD", "assay": "Binding affinity to BRPF1 (unknown origin) by BROMOscan panel based assay"}, "[14]": {"target": "Bromodomain and PHD finger-containing protein 3 (Homo sapiens, UniProt Q9ULD4)", "assay": "Binding affinity to BRPF3 (unknown origin) by BROMOscan panel based assay"}, "[15]": {"target": "Nucleosome-remodeling factor subunit BPTF (Homo sapiens, UniProt Q12830)", "assay": "Binding affinity to BPTF in human HUT78 cells incubated for 45 mins by mass spectrometry based bromosphere chemoproteomic assay", "assay_type": "cell-based"}, "[16]": {"target": "Chromatin remodeling regulator CECR2 (Homo sapiens, UniProt Q9BXF3)", "assay": "Binding affinity to CECR2 (unknown origin) by BROMOscan panel based assay"}, "[17]": {"target": "T4, ATPase family AAA domain-containing protein 2B", "assay": "Binding affinity to ATAD2B (unknown origin) by BROMOscan panel based assay"}, "[18]": {"target": "Histone acetyltransferase KAT2B (Homo sapiens, UniProt Q92831)", "assay": "Binding affinity to KAT2B in human HUT78 cells incubated for 45 mins by mass spectrometry based bromosphere chemoproteomic assay", "assay_type": "cell-based"}, "[19]": {"target": "Tyrosine-protein kinase BAZ1B (Homo sapiens, UniProt Q9UIG0)", "assay": "Binding affinity to BAZ1B in human HUT78 cells incubated for 45 mins by mass spectrometry based bromosphere chemoproteomic assay", "assay_type": "cell-based"}, "[20]": {"target": "T1, Bromodomain-containing protein 4", "assay": "Binding affinity to BRD4 containing BD2 bromodomains (unknown origin) by TR-FRET assay"}, "[21]": {"target": "Transcription initiation factor TFIID subunit 1-like (Homo sapiens, UniProt Q8IZX4)", "sequence (Q8IZX4 whole entry)": "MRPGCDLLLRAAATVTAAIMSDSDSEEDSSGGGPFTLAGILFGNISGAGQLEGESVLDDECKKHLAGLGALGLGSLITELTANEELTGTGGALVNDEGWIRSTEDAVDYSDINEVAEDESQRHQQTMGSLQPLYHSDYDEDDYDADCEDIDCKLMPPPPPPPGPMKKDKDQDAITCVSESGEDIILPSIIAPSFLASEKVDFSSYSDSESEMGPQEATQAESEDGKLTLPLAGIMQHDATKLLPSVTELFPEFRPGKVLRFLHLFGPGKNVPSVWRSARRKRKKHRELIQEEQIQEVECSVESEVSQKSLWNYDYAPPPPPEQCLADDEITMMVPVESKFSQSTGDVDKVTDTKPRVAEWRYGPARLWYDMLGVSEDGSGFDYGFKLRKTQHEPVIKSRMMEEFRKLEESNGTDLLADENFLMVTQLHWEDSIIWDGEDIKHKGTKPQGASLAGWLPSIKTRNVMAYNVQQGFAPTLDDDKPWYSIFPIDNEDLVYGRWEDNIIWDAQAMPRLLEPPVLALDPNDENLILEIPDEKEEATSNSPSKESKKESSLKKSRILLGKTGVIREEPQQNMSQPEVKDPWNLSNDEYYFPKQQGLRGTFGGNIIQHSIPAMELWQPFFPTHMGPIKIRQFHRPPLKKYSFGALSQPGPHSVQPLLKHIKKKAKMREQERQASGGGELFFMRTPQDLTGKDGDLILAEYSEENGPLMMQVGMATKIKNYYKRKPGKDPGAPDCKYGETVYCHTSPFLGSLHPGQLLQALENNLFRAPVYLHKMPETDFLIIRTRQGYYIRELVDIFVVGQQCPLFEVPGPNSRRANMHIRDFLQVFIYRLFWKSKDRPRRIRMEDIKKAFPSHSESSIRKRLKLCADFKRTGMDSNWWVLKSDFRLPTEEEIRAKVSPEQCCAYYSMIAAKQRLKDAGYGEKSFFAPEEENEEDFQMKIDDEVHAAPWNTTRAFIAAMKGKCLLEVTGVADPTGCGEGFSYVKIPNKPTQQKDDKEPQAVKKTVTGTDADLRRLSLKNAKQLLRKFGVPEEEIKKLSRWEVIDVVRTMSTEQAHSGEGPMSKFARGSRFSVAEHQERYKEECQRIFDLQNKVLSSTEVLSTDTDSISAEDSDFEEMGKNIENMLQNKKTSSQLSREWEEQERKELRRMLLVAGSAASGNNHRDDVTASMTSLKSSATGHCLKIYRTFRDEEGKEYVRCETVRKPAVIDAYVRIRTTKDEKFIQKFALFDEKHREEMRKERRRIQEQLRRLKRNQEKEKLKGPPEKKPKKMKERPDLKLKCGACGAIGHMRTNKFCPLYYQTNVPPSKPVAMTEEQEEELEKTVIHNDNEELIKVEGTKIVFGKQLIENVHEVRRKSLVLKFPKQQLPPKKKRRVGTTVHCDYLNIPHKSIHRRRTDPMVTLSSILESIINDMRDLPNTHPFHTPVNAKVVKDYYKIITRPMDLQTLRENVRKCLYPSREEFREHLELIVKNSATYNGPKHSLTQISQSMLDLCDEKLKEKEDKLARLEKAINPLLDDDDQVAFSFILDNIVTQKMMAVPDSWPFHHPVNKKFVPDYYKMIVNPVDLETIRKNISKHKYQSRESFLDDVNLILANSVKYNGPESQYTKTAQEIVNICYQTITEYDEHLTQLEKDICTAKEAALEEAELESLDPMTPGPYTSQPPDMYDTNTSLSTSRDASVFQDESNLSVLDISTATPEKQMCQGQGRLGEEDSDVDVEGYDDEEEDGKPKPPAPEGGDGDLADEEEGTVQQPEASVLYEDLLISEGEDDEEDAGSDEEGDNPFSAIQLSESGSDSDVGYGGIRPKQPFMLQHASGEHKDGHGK", "assay": "Binding affinity to TAF1L (unknown origin) by BROMOscan panel based assay"}, "[22]": {"target": "SWI/SNF-related matrix-associated actin-dependent regulator of chromatin subfamily A member 4 (Homo sapiens, UniProt P51532)", "assay": "Binding affinity to SMARCA4 in human HUT78 cells incubated for 45 mins by mass spectrometry based bromosphere chemoproteomic assay", "assay_type": "cell-based"}, "[23]": {"target": "T2, Bromodomain-containing protein 3", "assay": "Binding affinity to BRD3 containing BD1 bromodomains (unknown origin) by TR-FRET assay"}}}
{"compound": "Cc1cncc(-c2cnc(N[C@@H]3CCN(C)C[C@H]3OCC3CCS(=O)(=O)CC3)c3[nH]c(=O)c(C)cc23)c1", "values": [{"measurement": "IC50", "setting": "[1]", "result": 79.4, "unit": "µM"}, {"measurement": "Kd", "setting": "[2]", "result": 31.6, "unit": "µM"}, {"measurement": "solubility kinetic at 1 h", "setting": "physchem", "result": "≥ 341", "unit": "µM"}, {"measurement": "Kd", "setting": "Protein polybromo-1", "result": "> 100", "unit": "µM"}, {"measurement": "Kd", "setting": "[3]", "result": "> 100", "unit": "µM"}, {"measurement": "Ki", "setting": "[4]", "result": 0.398, "unit": "µM"}, {"measurement": "Papp at 3 h", "setting": "[5]", "result": "< 1", "unit": "×10⁻⁶ cm/s"}, {"measurement": "IC50", "setting": "[6]", "result": "> 50.1", "unit": "µM"}, {"measurement": "Ki", "setting": "[7]", "result": 0.0501, "unit": "µM"}, {"measurement": "IC50", "setting": "[8]", "result": "> 50.1", "unit": "µM"}, {"measurement": "Kd", "setting": "[9]", "result": 0.1, "unit": "µM"}, {"measurement": "Ki", "setting": "[10]", "result": 7.94, "unit": "µM"}, {"measurement": "IC50", "setting": "[11]", "result": "> 50.1", "unit": "µM"}, {"measurement": "Kd", "setting": "[12]", "result": 20, "unit": "µM"}, {"measurement": "Kd", "setting": "[13]", "result": 20, "unit": "µM"}, {"measurement": "Ki", "setting": "Peregrin", "result": 5.01, "unit": "µM"}, {"measurement": "Ki", "setting": "[14]", "result": 0.794, "unit": "µM"}, {"measurement": "Kd", "setting": "[15]", "result": "> 100", "unit": "µM"}, {"measurement": "Ki", "setting": "[16]", "result": 0.794, "unit": "µM"}, {"measurement": "Ki", "setting": "[17]", "result": 0.0398, "unit": "µM"}, {"measurement": "Kd", "setting": "[18]", "result": "> 100", "unit": "µM"}, {"measurement": "Kd", "setting": "[19]", "result": "> 100", "unit": "µM"}, {"measurement": "IC50", "setting": "[20]", "result": "> 501", "unit": "µM"}, {"measurement": "Ki", "setting": "[21]", "result": 0.126, "unit": "µM"}, {"measurement": "Kd", "setting": "[22]", "result": 20, "unit": "µM"}, {"measurement": "IC50", "setting": "[23]", "result": "> 50.1", "unit": "µM"}]}
